Experimental data taken from patent US20140309310A1 (GACHON UNIVERSITY OF INDUSTRY-ACADEMIC COOPERATION …, priority 2011, published 2014).

Columns and labels:
[1] = system: ovariectomy-induced osteoporosis (ovariectomized BALB/c mice); assay: Whole-body bone mineral density and bone mass by dual energy X-ray absorptiometry (DEXA) in ovariectomized mice; type: in vivo, mouse; conditions: DDS oral 2 mg/kg from 1 week before to 12 weeks after ovariectomy, whole body DEXA at 12 weeks, P<0.05 vs OVX
Text: 10-week-old BALB/c mice were subjected to ovariectomy (OVX) to make experimental animal models with osteopenia induced by OVX. […] All the animal studies were approved by the Animal Research Ethical Committee of Seoul National University.

[2] = system: ovariectomy-induced osteoporosis (ovariectomized BALB/c mice); assay: High-resolution micro-CT imaging of femoral trabecular bone, trabecular thickness and separation in ovariectomized mice; type: in vivo, mouse; conditions: OVX mice, DDS oral 2 mg/kg
Description: 10-week-old BALB/c mice were subjected to ovariectomy (OVX) to make experimental animal models with osteopenia induced by OVX. […] All the animal studies were approved by the Animal Research Ethical Committee of Seoul National University. The trabecular bone of femoral region adjacent to the mouse shin was imaged by radiography using high-resolution micro-CT. The right limb of the mice was excised and stored in 10% formalin for one day. Then, the bone tissue was stored in 70% alcohol at 4° C. until use in analysis. The bone tissue was imaged by computer tomography using Skyscan 1076 Desktop X-ray Microtomograph (Skyscan, Belgium) at a tube voltage of 100 kV and an exposure current of 200 μA. For the acquired images, bone mineral density (BMD) and bone volume (BV) were measured using Skyscan CTan ver. 1.5.0 and Shortcut to ANT image analysis program (Skyscan, Belgium), and the acquired images were reconstituted into three-dimensional images. In addition, trabecular thickness (Tb. Th) and trabecular separation (Tb. Sp), which are the indices of morphological microstructures on the micro CT images, were measured, and the results of the measurement are shown in FIG. 3.

[3] = system: osteopenia induced by aging (female C57BL/6J mice); assay: Whole-body bone mineral density and bone mass by DEXA in mice with osteoporosis induced by aging; type: in vivo, mouse; conditions: DDS 2 mg/kg over 12 weeks
Description: The mice were acclimated for 1 week, housed at a temperature of 21±1° C. and a humidity of 60%, and allowed access to food ad libitum.

Caenorhabditis elegans = conditions: reported; cited from earlier work

SMILES: Nc1ccc(S(=O)(=O)c2ccc(N)cc2)cc1 [DDS, diaminodiphenylsulfone]
- increase in bone mass compared to the positive control group (OVX) [1]: 9.13%
- increase in bone mineral density compared to the positive control group (OVX) [1]: 4.09%
- microstructure of the bone section (micro-CT three-dimensional image) ([2]; femoral trabecular bone): as dense as that of the negative control group
- trabecular separation (Tb. Sp) ([2]; micro-CT of femoral region): levels similar to those of the negative control group
- trabecular thickness (Tb. Th) ([2]; micro-CT of femoral region): levels similar to those of the negative control group
- change in bone mass, 8-month-old mice ([3]; female C57BL/6J): no significant change
- change in bone mineral density, 8-month-old mice ([3]; female C57BL/6J): no significant change
- increase in bone mass, 30-month-old mice ([3]; female mice): 9.6%
- increase in bone mineral density, 30-month-old mice ([3]; female mice): 5.11%
- increase of life span of Caenorhabditis elegans (Caenorhabditis elegans): 20-30%
